target: T1, recombinant human GR (Homo sapiens, UniProt P04150); experiment: Human Glucocorticoid Receptor (GR) Assay, fluorescence polarization; type: binding; details: GS Red tracer, incubated 2 h at r.t., XLfit model 205, read-out: GRhuFL_FP_v2 Mean IC50
T1 construct: purchased Panvera/Invitrogen P2812 (kit P2893)
T1 sequence (P04150 1-777): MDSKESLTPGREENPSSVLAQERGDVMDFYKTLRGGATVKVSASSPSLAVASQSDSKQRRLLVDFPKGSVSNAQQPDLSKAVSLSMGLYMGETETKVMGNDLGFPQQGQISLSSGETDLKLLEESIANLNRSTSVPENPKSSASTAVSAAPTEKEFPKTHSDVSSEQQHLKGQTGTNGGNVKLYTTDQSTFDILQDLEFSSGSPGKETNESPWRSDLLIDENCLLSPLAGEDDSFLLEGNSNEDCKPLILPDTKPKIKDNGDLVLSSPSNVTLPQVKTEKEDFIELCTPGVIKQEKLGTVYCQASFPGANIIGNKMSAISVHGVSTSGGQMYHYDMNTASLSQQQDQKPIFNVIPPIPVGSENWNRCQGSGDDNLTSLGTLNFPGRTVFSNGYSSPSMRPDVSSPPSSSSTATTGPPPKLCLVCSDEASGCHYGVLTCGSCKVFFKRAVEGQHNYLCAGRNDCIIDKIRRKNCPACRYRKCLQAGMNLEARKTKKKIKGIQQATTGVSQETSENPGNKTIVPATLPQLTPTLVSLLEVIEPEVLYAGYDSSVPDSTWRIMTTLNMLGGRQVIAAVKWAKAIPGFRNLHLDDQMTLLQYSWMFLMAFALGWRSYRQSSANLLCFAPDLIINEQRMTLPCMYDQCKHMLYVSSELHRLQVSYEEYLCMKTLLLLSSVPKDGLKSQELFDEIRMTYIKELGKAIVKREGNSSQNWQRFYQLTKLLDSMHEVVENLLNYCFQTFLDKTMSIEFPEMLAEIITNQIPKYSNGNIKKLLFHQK
Summary of the method: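 After 2 h dark incubation at r.t., polarization reported displacement of the GS Red tracer from recombinant GR, in buffer with phosphate, molybdate, EDTA, DTT and Stabilizing Peptide. Controls: dexamethasone (100%) and DMSO (0%).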

IC50 [nM]	SMILES
4.1	COc1cccc([C@@H](Oc2ccc3c(cnn3-c3ccc(F)cc3)c2)[C@H](C)NC(=O)c2sccc2C)c1 [Example 132, N-[(1R,2S)-1-[1-(4-fluorophenyl)indazol-5-yl]oxy-1-(3-methoxyphenyl)propan-2-yl]-3-methyl-thiophene-2-carboxamide]
3	COc1cccc([C@@H](Oc2ccc3c(cnn3-c3ccc(F)cc3)c2)[C@H](C)NC(=O)c2cc(C)on2)c1 [Example 136, N-[(1R,2S)-1-[1-(4-fluorophenyl)indazol-5-yl]oxy-1-(3-methoxyphenyl)propan-2-yl]-5-methyl-1,2-oxazole-3-carboxamide]
4.1	C[C@H](NC(=O)C1(O)CC1)[C@H](Oc1ccc2c(cnn2-c2ccc(F)cc2)c1)c1ccc(C(F)(F)F)cc1 [Example 139, N-[(1R,2S)-1-[1-(4-fluorophenyl)indazol-5-yl]oxy-1-[4-(trifluoromethyl)phenyl]propan-2-yl]-1-hydroxy-cyclopropane-1-carboxamide]
3.3	C[C@H](NC(=O)C(F)(F)F)[C@H](Oc1ccc2c(cnn2-c2ccc(CO)cc2)c1)c1ccccc1 [Example 141, 2,2,2-trifluoro-N-((1R,2S)-1-(1-(4-(hydroxymethyl)phenyl)-1H-indazol-5-yloxy)-1-phenylpropan-2-yl)acetamide]
23	C[C@H](NC(=O)C(F)(F)F)[C@H](Oc1ccc2c(cnn2-c2ccc(CN(C)C)cc2)c1)c1ccccc1 [Example 143, N-((1R,2S)-1-(1-(4-((dimethylamino)methyl)phenyl)-1H-indazol-5-yloxy)-1-phenylpropan-2-yl)-2,2,2-trifluoroacetamide]
5.5	Cc1ccc([C@@H](Oc2ccc3c(cnn3-c3ccc(F)cc3)c2)[C@H](C)NC(=O)C(F)(F)F)cc1C [Example 149, N-[(1R,2S)-1-(3,4-dimethylphenyl)-1-[1-(4-fluorophenyl)indazol-5-yl]oxy-propan-2-yl]-2,2,2-trifluoro-acetamide]
4.6	C[C@H](NC(=O)C(F)(F)F)[C@H](Oc1ccc2c(cnn2-c2ccc(F)cc2)c1)c1ccc(F)c(F)c1 [Example 150, N-[(1R,2S)-1-(3,4-difluorophenyl)-1-[1-(4-fluorophenyl)indazol-5-yl]oxy-propan-2-yl]-2,2,2-trifluoro-acetamide]
32	Cc1ccc([C@@H](Oc2ccc3c(cnn3-c3ccc(F)cc3)c2)[C@H](C)NC(=O)C(F)(F)F)cc1F [Example 151, 2,2,2-trifluoro-N-[(1R,2S)-1-(3-fluoro-4-methyl-phenyl)-1-[1-(4-fluorophenyl)indazol-5-yl]oxy-propan-2-yl]acetamide]
3.6	C[C@H](NC(=O)C(F)(F)F)[C@H](Oc1ccc2c(cnn2-c2ccc(F)cc2)c1)c1cccc(F)c1 [Example 152, 2,2,2-trifluoro-N-[(1R,2S)-1-(3-fluorophenyl)-1-[1-(4-fluorophenyl)indazol-5-yl]oxy-propan-2-yl]acetamide]
3.6	Cc1ccc(C)c([C@@H](Oc2ccc3c(cnn3-c3ccc(F)cc3)c2)[C@H](C)NC(=O)C(F)(F)F)c1 [Example 153, N-[(1R,2S)-1-(2,5-dimethylphenyl)-1-[1-(4-fluorophenyl)indazol-5-yl]oxy-propan-2-yl]-2,2,2-trifluoro-acetamide]
4.7	Cc1ccc([C@@H](Oc2ccc3c(cnn3-c3ccc(F)cc3)c2)[C@H](C)NC(=O)C(F)(F)F)c(C)c1 [Example 154, N-[(1R,2S)-1-(2,4-dimethylphenyl)-1-[1-(4-fluorophenyl)indazol-5-yl]oxy-propan-2-yl]-2,2,2-trifluoro-acetamide]
5	C[C@H](NC(=O)C(F)(F)F)[C@H](Oc1ccc2c(cnn2-c2ccc(F)cc2)c1)c1cccc(Cl)c1 [Example 155, N-[(1R,2S)-1-(3-chlorophenyl)-1-[1-(4-fluorophenyl)indazol-5-yl]oxy-propan-2-yl]-2,2,2-trifluoro-acetamide]
4.2	Cc1cc(F)ccc1[C@@H](Oc1ccc2c(cnn2-c2ccc(F)cc2)c1)[C@H](C)NC(=O)C(F)(F)F [Example 156, 2,2,2-trifluoro-N-[(1R,2S)-1-(4-fluoro-2-methyl-phenyl)-1-[1-(4-fluorophenyl)indazol-5-yl]oxy-propan-2-yl]acetamide]
5.3	Cc1ccc(F)cc1[C@@H](Oc1ccc2c(cnn2-c2ccc(F)cc2)c1)[C@H](C)NC(=O)C(F)(F)F [Example 157, 2,2,2-trifluoro-N-[(1R,2S)-1-(5-fluoro-2-methyl-phenyl)-1-[1-(4-fluorophenyl)indazol-5-yl]oxy-propan-2-yl]acetamide]
4.2	COc1c(C)cc([C@@H](Oc2ccc3c(cnn3-c3ccc(F)cc3)c2)[C@H](C)NC(=O)C(F)(F)F)cc1C [Example 159, 2,2,2-trifluoro-N-[(1R,2S)-1-[1-(4-fluorophenyl)indazol-5-yl]oxy-1-(4-methoxy-3,5-dimethyl-phenyl)propan-2-yl]acetamide]
4.1	C[C@H](NC(=O)C(F)(F)F)[C@H](Oc1ccc2c(cnn2-c2ccc(F)cc2)c1)c1ccc(Cl)cc1 [Example 160, N-[(1R,2S)-1-(4-chlorophenyl)-1-[1-(4-fluorophenyl)indazol-5-yl]oxy-propan-2-yl]-2,2,2-trifluoro-acetamide]
8.5	C[C@H](NC(=O)C(F)(F)F)[C@H](Oc1ccc2c(cnn2-c2ccc(F)cc2)c1)c1cc(F)cc(Cl)c1 [Example 161, N-[(1R,2S)-1-(3-chloro-5-fluoro-phenyl)-1-[1-(4-fluorophenyl)indazol-5-yl]oxy-propan-2-yl]-2,2,2-trifluoro-acetamide]

Second part, the compound before the results:

SMILES	IC50 [nM]
CC(C)n1ncc2cc(O[C@H](c3ccccc3)[C@H](C)NC(=O)C(F)(F)F)ccc21 [Example 129, 2,2,2-Trifluoro-N-[(1R,2S)-1-phenyl-1-(1-propan-2-ylindazol-5-yl)oxy-propan-2-yl]acetamide]	11
C[C@H](NC(=O)C(F)(F)F)[C@H](Oc1ccc2c(cnn2C2CCCC2)c1)c1ccccc1 [Example 130, N-[(1R,2S)-1-(1-cyclopentylindazol-5-yl)oxy-1-phenyl-propan-2-yl]-2,2,2-trifluoro-acetamide]	2.5
COc1cccc([C@@H](Oc2ccc3c(cnn3-c3ccc(F)cc3)c2)[C@H](C)NC(=O)c2ccc(C)s2)c1 [Example 131, N-[(1R,2S)-1-[1-(4-fluorophenyl)indazol-5-yl]oxy-1-(3-methoxyphenyl)propan-2-yl]-5-methyl-thiophene-2-carboxamide]	4
COc1cccc([C@@H](Oc2ccc3c(cnn3-c3ccc(F)cc3)c2)[C@H](C)NC(=O)c2cccn2C)c1 [Example 133, N-[(1R,2S)-1-[1-(4-fluorophenyl)indazol-5-yl]oxy-1-(3-methoxyphenyl)propan-2-yl]-1-methyl-pyrrole-2-carboxamide]	3.3
COc1cccc([C@@H](Oc2ccc3c(cnn3-c3ccc(F)cc3)c2)[C@H](C)NC(=O)c2ccsc2)c1 [Example 134, N-[(1R,2S)-1-[1-(4-fluorophenyl)indazol-5-yl]oxy-1-(3-methoxyphenyl)propan-2-yl]thiophene-3-carboxamide]	3.6
COc1cccc([C@@H](Oc2ccc3c(cnn3-c3ccc(F)cc3)c2)[C@H](C)NC(=O)c2nccs2)c1 [Example 135, N-[(1R,2S)-1-[1-(4-fluorophenyl)indazol-5-yl]oxy-1-(3-methoxyphenyl)propan-2-yl]1,3-thiazole-2-carboxamide]	3.1
CC(C)C(=O)NC(=O)C(Oc1ccc2c(cnn2-c2ccc(F)cc2)c1)c1ccccc1 (stereo not shown) [Example 137, N-[2-[1-(4-fluorophenyl)indazol-5-yl]oxy-2-phenyl-acetyl]-2-methyl-propanamide]	360
C[C@H](NC(=O)C(F)(F)F)[C@H](Oc1ccc2c(cnn2-c2ccc(CN3CCOCC3)cc2)c1)c1ccccc1 [Example 142, 2,2,2-trifluoro-N-((1R,2S)-1-(1-(4-(morpholinomethyl)phenyl)-1H-indazol-5-yloxy)-1-phenylpropan-2-yl)acetamide]	5.6
C[C@H](NC(=O)C(F)(F)F)[C@H](Oc1ccc2c(cnn2-c2cccc(CO)c2)c1)c1ccccc1 [Example 144, 2,2,2-trifluoro-N-((1R,2S)-1-(1-(3-(hydroxymethyl)phenyl)-1H-indazol-5-yloxy)-1-phenylpropan-2-yl)acetamide]	3
C[C@H](NC(=O)C(F)(F)F)[C@H](Oc1ccc2c(cnn2-c2cccc(CN3CCOCC3)c2)c1)c1ccccc1 [Example 145, 2,2,2-trifluoro-N-((1R,2S)-1-(1-(3-(morpholinomethyl)phenyl)-1H-indazol-5-yloxy)-1-phenylpropan-2-yl)acetamide]	5.5
C[C@H](NC(=O)C(F)(F)F)[C@H](Oc1ccc2c(cnn2-c2cccc(CN(C)C)c2)c1)c1ccccc1 [Example 146, N-((1R,2S)-1-(1-(3-((dimethylamino)methyl)phenyl)-1H-indazol-5-yloxy)-1-phenylpropan-2-yl)-2,2,2-trifluoroacetamide]	78
